Source: PMC10548512 (Chemical Science, 2023)

Key:
[1] = test system: H1N1pdm09 virus (A/Netherlands/602/2009)
H1 ectodomain = conditions: pH 7.5

Compound | Infection inhibition in single-concentration screen [1] | IC50 ([1]; 1 h) [nM] | Competition with fluorescein-labelled S5 for binding to H1 protein (H1 ectodomain)
CC[C@H](C)[C@@H]1NC(=O)[C@H](CS)NC(=O)[C@H](CO)NC(=O)[C@H](CCCNC(=N)N)NC(=O)[C@H](CCCNC(=N)N)NC(=O)[C@H](Cc2ccc(O)cc2)NC(=O)[C@H](CCC(N)=O)NC(=O)[C@H](Cc2ccccc2)NC(=O)[C@H](CC(N)=O)NC(=O)[C@H](CC(C)C)NC(=O)[C@@H]2CSC(=N2)c2cc(ccn2)C[C@@H](C(=O)NCC(N)=O)NC(=O)[C@H](CC(N)=O)NC(=O)[C@H](CC(C)C)NC(=O)[C@H]([C@@H](C)CC)NC(=O)[C@H](CC(N)=O)NC(=O)[C@H](CC(C)C)NC1=O [M3] | clear infection inhibition | 120 | compete
H-CLNFQYRRSCILNILNBG-NH2 (disulfide) [M4] | did not show inhibition | – | –
H-CYYFTHSIFNNLIVFHBG-NH2 (sidechain bridge or staple) [M8] | minimal to no activity | – | showed competition
